Assay [1] in a line: modified phenyl-p-quinone writhing assay in mice (analgesia). Type of assay: in vivo, mice (male, Charles River, CD-1). Here is the method:
The procedure employed to determine analgesic utility is a modification of the phenyl-p-quinone writhing assay in mice, a standard assay for analgesia [Proc. Soc. Exptl. Bio. Med., 95 729 (1957)]. In the modified procedure phenyl-p-benzoquinone (Eastman, 12.5 mg) is dissolved in 5 ml of 95% ethanol and the solution is diluted to a total volume of 100 ml with distilled water. The solution is administered to the subject mice […] at a dose of 10 ml per kg of body weight. A characteristic "writh", an inward rotation of one or more feet with twisting and turning of the trunk, drawing in of the abdominal wall, lordosis and arching of the back, is produced.
A total of 28 male mice (Charles River, CD-1), weighing 18 to 30 grams, are employed for a time response. The subject animals receive food and water ad libitum. Test compounds are dissolved in distilled water, or suspended in distilled water containing one drop of a suitable surfactant, such as Tween-80.
Four groups of five animals (20 animals) are given the test compound subcutaneously at 15, 30, 45 and 60 minutes prior to administration of the phenyl-p-quinone. Four control groups of 2 animals (8 animals) receive an equal volume of the vehicle. […] The number of writhes for each animal is recorded. […]

Assay [2] in a line: climbing mice assay (antipsychotic activity; inhibition of apomorphine induced climbing). It counts as in vivo, mice (CK-1 male). The following applies: Mus musculus, ip, 30 minutes prior to apomorphine 1.5 mg/kg s.c., read-out: Anti-Psychotic Activity (ED50), 50% inhibition of apomorphine induced climbing. The text has this: The subject CK-1 male mice (23-27 grams) are group-housed under standard laboratory conditions. The mice are individually placed in wire mesh stick cages (4"×4" by 10") and are allowed one hour for adaptation and exploration of the new environment.
Mice consistently climbing before the injection of apomorphine are discarded.
With full-developed apomorphine climbing, the animals are hanging onto the cage walls, rather motionless, over longer periods of time. By contrast, climbs due to mere motor stimulation usually last only a few seconds.

For orientation: ED50 means the midpoint of the dose-response relation.

As to `CSc1ccc2c(c1)N(CCCN1CCC(C(O)c3ccc(F)cc3)CC1)c1ccccc1S2` (stereo not drawn) [α-(4-Fluorophenyl)-1-[3-(2-methylthiophenothiazin-10-yl)propyl]-4-piperidinemethanol], the “Analgesic Activity (% Inhibition of Writhing)” value in assay [1] (at 20 mg/kg, subcutaneous (route per method)) worked out at 43%. In assay [2], the ED50 was 8.6 mg/kg.

On to `CC(C)=CCN1CCC2(C)c3cc(O)ccc3CC1C2C` (stereo not shown) [Pentazocine], for which the “Analgesic Activity (% Inhibition of Writhing)” value in assay [1] (at 1.3 mg/kg sc, standard) turned out to be 50%.

Turning to `CSc1ccc2c(c1)N(CCC1CCCCN1C)c1ccccc1S2` (stereo not shown) [Thioridazine], the ED50 in assay [2] was 4.1 mg/kg.

Values taken from US4822796A, “1-((Phenothiazin-10-yl)alkyl)-alpha-phenyl-4-piperidinemethanols and pharmaceutical use” (priority 1987, dated 1989).
